Test results published in ChEMBL document CHEMBL5052852, “Substituted hydantoinamides as adamts7 antagonists” (2021).

Experiments:
[1] = Inhibition of recombinant rat/human ADAMTS7 hybrid using HiLyteFluor-488 DELSSMVLELRGLRT-K(QXL520)-E-NH2 as substrate incubated for 120 mins and measured by FRET assay
[2] = Inhibition of recombinant rat/human ADAMTS12 hybrid using HiLyteFluor-488 DELSSMVLELRGLRT-K(QXL520)-E-NH2 as substrate incubated for 120 mins and measured by FRET assay

CCC1(CNC(=O)c2cnn(-c3ccc(F)cc3)n2)NC(=O)NC1=O (racemic)
IC50 [1]: 200 nM
IC50 [2]: 13000 nM

CCC(C)C1(CNC(=O)c2cnn(-c3ccc(F)cc3)n2)NC(=O)NC1=O (racemic)
IC50 [1]: 10 nM
IC50 [2]: 2200 nM

O=C1NC(=O)C(CNC(=O)c2cnn(-c3ccccc3)n2)(C2CCC2)N1 (racemic)
IC50 [1]: 55 nM
IC50 [2]: 14000 nM

O=C1NC(=O)C(CNC(=O)c2cnn(-c3ccc(F)cc3)n2)(c2ccccc2)N1 (racemic)
IC50 [1]: 69 nM
IC50 [2]: > 50000 nM

O=C1NC(=O)C(CNC(=O)c2cnn(-c3ccccc3)n2)(C2CCOCC2)N1 (racemic)
IC50 [1]: 128 nM
IC50 [2]: 9950 nM

Cc1nc(C2(CNC(=O)c3cnn(-c4ccc(F)cc4)n3)NC(=O)NC2=O)c(C)s1 (racemic)
IC50 [1]: 100 nM
IC50 [2]: 2800 nM

CCCCC1(CNC(=O)c2cnn(-c3ccc(F)cc3)n2)NC(=O)NC1=O (racemic)
IC50 [1]: 120 nM
IC50 [2]: 8300 nM

CCCCC1(CNC(=O)c2cnn(-c3ccccc3)n2)NC(=O)NC1=O (racemic)
IC50 [1]: 89 nM
IC50 [2]: 15000 nM

CC(C)C1(CNC(=O)c2cnn(-c3cc(F)c(F)c(F)c3)n2)NC(=O)NC1=O (racemic)
IC50 [1]: 52 nM
IC50 [2]: 6000 nM

Cn1ccnc1C1(CNC(=O)c2cnn(-c3ccccc3)n2)NC(=O)NC1=O (racemic)
IC50 [1]: 4 nM
IC50 [2]: 360 nM

O=C1NC(=O)C(CNC(=O)c2cnn(-c3ccc(F)cc3)n2)(C2CCC2)N1 (racemic)
IC50 [1]: 98 nM
IC50 [2]: 35000 nM

CC(C)C1(CNC(=O)c2cnn(-c3cccc(C#N)c3)n2)NC(=O)NC1=O (racemic)
IC50 [1]: 170 nM
IC50 [2]: 6000 nM

Cn1ccnc1C1(CNC(=O)c2cnn(-c3ccc(F)cc3)n2)NC(=O)NC1=O (racemic)
IC50 [1]: 4 nM
IC50 [2]: 320 nM

O=C1NC(=O)C(CNC(=O)c2cnn(-c3ccc(F)cc3)n2)(C2(Cl)CC2)N1 (racemic)
IC50 [1]: 74 nM
IC50 [2]: 3700 nM

O=C1NC(=O)C(CNC(=O)c2cnn(-c3ccc(F)c(Cl)c3)n2)(c2nccs2)N1 (racemic)
IC50 [1]: 35 nM
IC50 [2]: 1200 nM

CC(C)(C)C1(CNC(=O)c2cnn(-c3ccc(F)cc3)n2)NC(=O)NC1=O (racemic)
IC50 [1]: 69 nM
IC50 [2]: 6000 nM

CCn1nccc1C1(CNC(=O)c2cnn(-c3ccc(F)cc3)n2)NC(=O)NC1=O (racemic)
IC50 [1]: 14 nM
IC50 [2]: 2800 nM

O=C1NC(=O)C(CNC(=O)c2cnn(-c3ccc(Cl)c(F)c3)n2)(c2nccs2)N1 (racemic)
IC50 [1]: 19 nM
IC50 [2]: 1100 nM

Cc1scnc1C1(CNC(=O)c2cnn(-c3ccc(F)cc3)n2)NC(=O)NC1=O (racemic)
IC50 [1]: 8 nM
IC50 [2]: 680 nM

O=C1NC(=O)C(CNC(=O)c2cnn(-c3ccc(F)cc3)n2)(c2nccs2)N1 (racemic)
IC50 [1]: 39 nM
IC50 [2]: 2400 nM

O=C1NC(=O)C(CNC(=O)c2cnn(-c3cccc(F)c3)n2)(c2nccs2)N1 (racemic)
IC50 [1]: 12 nM
IC50 [2]: 600 nM

CC(C)C1(CNC(=O)c2cnn(-c3ccc(F)c(F)c3)n2)NC(=O)NC1=O (racemic)
IC50 [1]: 11 nM
IC50 [2]: 2500 nM

O=C1NC(=O)C(CNC(=O)c2cnn(-c3ccc(F)cc3)n2)(c2ncsc2C(F)(F)F)N1 (racemic)
IC50 [1]: 48 nM
IC50 [2]: 6600 nM

CC(C)C1(CNC(=O)c2cnn(-c3ccc(Cl)c(F)c3)n2)NC(=O)NC1=O (racemic)
IC50 [1]: 13 nM
IC50 [2]: 2800 nM

CC(C)C1(CNC(=O)c2cnn(-c3ccc(F)cc3F)n2)NC(=O)NC1=O (racemic)
IC50 [1]: 98 nM
IC50 [2]: 20000 nM

CC(C)C1(CNC(=O)c2cnn(-c3cccc(F)c3)n2)NC(=O)NC1=O (racemic)
IC50 [1]: 46 nM
IC50 [2]: 4500 nM

O=C1NC(=O)C(CNC(=O)c2cnn(-c3ccc(F)cc3)n2)(CC2CC2)N1 (racemic)
IC50 [1]: 240 nM
IC50 [2]: 50000 nM

Cn1ccnc1C1(CNC(=O)c2cnn(-c3cc(F)c(F)c(F)c3)n2)NC(=O)NC1=O (racemic)
IC50 [1]: 5 nM
IC50 [2]: 200 nM

CC1(CNC(=O)c2cnn(-c3ccc(F)cc3)n2)NC(=O)NC1=O (racemic)
IC50 [1]: 560 nM
IC50 [2]: 5000 nM

O=C1NC(=O)C(CNC(=O)c2cnn(-c3ccccc3)n2)(C2CCCCC2)N1 (racemic)
IC50 [1]: 145 nM
IC50 [2]: 50000 nM

O=C1NC(=O)C(CNC(=O)c2cnn(-c3ccc(F)cc3)n2)(C2CCCC2)N1 (racemic)
IC50 [1]: 380 nM
IC50 [2]: 50000 nM

O=C1NC(=O)C(CNC(=O)c2cnn(-c3ccc(F)cc3)n2)(c2ccnn2C(F)F)N1 (racemic)
IC50 [1]: 29 nM
IC50 [2]: 2400 nM

O=C1NC(=O)C(CNC(=O)c2cnn(-c3ccc(F)cc3)n2)(C2CCOCC2)N1 (racemic)
IC50 [1]: 260 nM
IC50 [2]: 9300 nM

O=C1NC(=O)C(CNC(=O)c2cnn(-c3ccc(F)cc3)n2)(c2ccnn2CC(F)(F)F)N1 (racemic)
IC50 [1]: 50 nM
IC50 [2]: 3200 nM

O=C1NC(=O)C(CNC(=O)c2cnn(-c3ccccc3)n2)(C2CCCC2)N1 (racemic)
IC50 [1]: 191 nM
IC50 [2]: 50000 nM

CC(C)(C)C1(CNC(=O)c2cnn(-c3ccccc3)n2)NC(=O)NC1=O (racemic)
IC50 [1]: 70 nM
IC50 [2]: 15000 nM

CC(C)C1(CNC(=O)c2cnn(-c3ccc(F)cc3)n2)NC(=O)NC1=O (racemic)
IC50 [1]: 42 nM
IC50 [2]: 16000 nM

O=C1NC(=O)C(CNC(=O)c2cnn(-c3ccc(F)cc3F)n2)(c2nccs2)N1 (racemic)
IC50 [1]: 87 nM
IC50 [2]: 6600 nM

CCCC1(CNC(=O)c2cnn(-c3ccc(F)cc3)n2)NC(=O)NC1=O (racemic)
IC50 [1]: 170 nM
IC50 [2]: 19000 nM

O=C1NC(=O)C(CNC(=O)c2cnn(-c3ccc(F)cc3)n2)(c2ncccc2C(F)(F)F)N1 (racemic)
IC50 [1]: 59 nM
IC50 [2]: 15000 nM

O=C1NC(=O)C(CNC(=O)c2cnn(-c3ccc(F)cc3)n2)(c2ncsc2C2CC2)N1 (racemic)
IC50 [1]: 8 nM
IC50 [2]: 460 nM

CC(C)(C)C1(CNC(=O)c2cnn(-c3ccccc3)c2)NC(=O)NC1=O (racemic)
IC50 [1]: 550 nM
IC50 [2]: 5600 nM

O=C1NC(=O)C(CNC(=O)c2cnn(-c3ccc(F)cc3)n2)(C2CC(F)(F)C2)N1 (racemic)
IC50 [1]: 220 nM
IC50 [2]: > 50000 nM

Cc1ncsc1C1(CNC(=O)c2cnn(-c3ccc(F)cc3)n2)NC(=O)NC1=O (racemic)
IC50 [1]: 37 nM
IC50 [2]: 2500 nM

Cn1nccc1C1(CNC(=O)c2cnn(-c3ccc(F)cc3)n2)NC(=O)NC1=O (racemic)
IC50 [1]: 10 nM
IC50 [2]: 2400 nM

CCCC1(CNC(=O)c2cnn(-c3ccccc3)n2)NC(=O)NC1=O (racemic)
IC50 [1]: 240 nM
IC50 [2]: 19000 nM

O=C1NC(=O)C(CNC(=O)c2cnn(-c3ccccc3)n2)(CC2CC2)N1 (racemic)
IC50 [1]: 670 nM
IC50 [2]: 25000 nM

O=C1NC(=O)C(CNC(=O)c2cnn(-c3ccc(F)cc3)n2)(C2(F)CC2)N1 (racemic)
IC50 [1]: 190 nM
IC50 [2]: 7900 nM

O=C1NC(=O)C(CNC(=O)c2cnn(-c3ccc(F)cc3)n2)(C2CCC2)N1 (single isomer, unassigned)
IC50 [1]: 24 nM
IC50 [2]: 4380 nM

O=C1NC(=O)C(CNC(=O)c2cnn(-c3ccc(F)cc3)n2)(c2ccnn2C(F)F)N1 (single isomer, unassigned; atropisomer)
IC50 [1]: 18 nM
IC50 [2]: 1700 nM

O=C1NC(=O)C(CNC(=O)c2cnn(-c3ccccc3)n2)(C2CCC2)N1 (stereo in doubt)
IC50 [1]: 78 nM
IC50 [2]: 11000 nM

O=C1NC(=O)C(CNC(=O)c2cnn(-c3ccccc3)n2)(c2ccccn2)N1 (stereo in doubt)
IC50 [1]: 10 nM
IC50 [2]: 2800 nM

CCCCC1(CNC(=O)c2cnn(-c3ccc(F)cc3)n2)NC(=O)NC1=O (stereo in doubt)
IC50 [1]: 48 nM
IC50 [2]: 3100 nM

CCCCC1(CNC(=O)c2cnn(-c3ccccc3)n2)NC(=O)NC1=O (stereo in doubt)
IC50 [1]: 191 nM
IC50 [2]: 19000 nM

CC(C)C1(CNC(=O)c2cnn(-c3cc(F)c(F)c(F)c3)n2)NC(=O)NC1=O (stereo in doubt)
IC50 [1]: 20 nM
IC50 [2]: 3300 nM

CC(C)C1(CNC(=O)c2cnn(-c3ccccc3)n2)NC(=O)NC1=O (stereo in doubt)
IC50 [1]: 76 nM
IC50 [2]: 10000 nM

O=C1NC(=O)C(CNC(=O)c2cnn(-c3ccc(F)c(Cl)c3)n2)(c2nccs2)N1 (stereo in doubt)
IC50 [1]: 14 nM
IC50 [2]: 780 nM

CC(C)(C)C1(CNC(=O)c2cnn(-c3ccc(F)cc3)n2)NC(=O)NC1=O (stereo in doubt)
IC50 [1]: 79 nM
IC50 [2]: 2200 nM

O=C1NC(=O)C(CNC(=O)c2cnn(-c3ccc(Cl)c(F)c3)n2)(c2nccs2)N1 (stereo in doubt)
IC50 [1]: 5 nM
IC50 [2]: 400 nM

Cc1scnc1C1(CNC(=O)c2cnn(-c3ccc(F)cc3)n2)NC(=O)NC1=O (stereo in doubt)
IC50 [1]: 2 nM
IC50 [2]: 200 nM

O=C1NC(=O)C(CNC(=O)c2cnn(-c3ccc(F)cc3)n2)(c2nccs2)N1 (stereo in doubt)
IC50 [1]: 15 nM
IC50 [2]: 1400 nM

O=C1NC(=O)C(CNC(=O)c2cnn(-c3ccc(F)cc3)n2)(CC2CC2)N1 (stereo in doubt)
IC50 [1]: 130 nM
IC50 [2]: 6200 nM

O=C1NC(=O)C(CNC(=O)c2cnn(-c3ccc(F)cc3)n2)(C2CCCC2)N1 (stereo in doubt)
IC50 [1]: 33 nM
IC50 [2]: 5900 nM

O=C1NC(=O)C(CNC(=O)c2cnn(-c3ccc(F)cc3)n2)(C2CCOCC2)N1 (stereo in doubt)
IC50 [1]: 37 nM
IC50 [2]: 1500 nM

O=C1NC(=O)C(CNC(=O)c2cnn(-c3ccccc3)n2)(C2CCCC2)N1 (stereo in doubt)
IC50 [1]: 120 nM
IC50 [2]: 11000 nM

CC(C)(C)C1(CNC(=O)c2cnn(-c3ccccc3)n2)NC(=O)NC1=O (stereo in doubt)
IC50 [1]: 47 nM
IC50 [2]: 13100 nM

CC(C)C1(CNC(=O)c2cnn(-c3ccc(F)cc3)n2)NC(=O)NC1=O (stereo in doubt)
IC50 [1]: 8 nM
IC50 [2]: 2770 nM

O=C1NC(=O)C(CNC(=O)c2cnn(-c3ccc(F)cc3F)n2)(c2nccs2)N1 (stereo in doubt)
IC50 [1]: 78 nM
IC50 [2]: 5500 nM

CCCC1(CNC(=O)c2cnn(-c3ccc(F)cc3)n2)NC(=O)NC1=O (stereo in doubt)
IC50 [1]: 60 nM
IC50 [2]: 5100 nM
